The target in the test is T1, purified human IDO protein (Homo sapiens, UniProt P14902, E119G/P110S).
T1 construct: 6-Histidine tag (C); made in house; host or cells: E. coli M15(pREP4) transformed with pQE70-hIDO
Put plainly: Enzymatic IDO assay (kynurenine formation, absorbance at 480 nm). The class given is biochemical. As to conditions: recombinant human IDO, 200 μM L-tryptophan, pH 6.5; reported in ranges. Here is the method:
The inhibitors were initially diluted in DMSO at 100 mM and were diluted in potassium phosphate 50 mM, added to the reaction mixture at final concentrations raging from 1 mM to 5 nM and preincubated with the enzyme for 5 min at 25° C. The reaction was started by addition of L-tryptophan to 200 μM and incubated 15 min at 37° C. The reaction was stopped by addition of 0.5 vol of 30% trichloroacetic acid and incubated 30 min at 60° C. to hydrolyze N-formylkynurenine to kynurenine. The reaction was centrifuged at 3400 g for 5 min to remove precipitated protein and the supernatant was reacted with 2% (w/v) of p-dimethylaminobenzaldehyde in acetic acid. The reaction was incubated 10 min at 25° C. and read at 480 nm in a spectrophotometer. […] Nonlinear regressions and determination of the IC50 values were performed using the GraphPad Prism 4 software.

We go through 53 compounds from US9174942B2, “IDO inhibitors” (NewLink Genetics Corporation, priority 2008, dated 2015).

Some results are limits rather than exact numbers.

T1 sequence (P14902 whole entry P110S/E119G): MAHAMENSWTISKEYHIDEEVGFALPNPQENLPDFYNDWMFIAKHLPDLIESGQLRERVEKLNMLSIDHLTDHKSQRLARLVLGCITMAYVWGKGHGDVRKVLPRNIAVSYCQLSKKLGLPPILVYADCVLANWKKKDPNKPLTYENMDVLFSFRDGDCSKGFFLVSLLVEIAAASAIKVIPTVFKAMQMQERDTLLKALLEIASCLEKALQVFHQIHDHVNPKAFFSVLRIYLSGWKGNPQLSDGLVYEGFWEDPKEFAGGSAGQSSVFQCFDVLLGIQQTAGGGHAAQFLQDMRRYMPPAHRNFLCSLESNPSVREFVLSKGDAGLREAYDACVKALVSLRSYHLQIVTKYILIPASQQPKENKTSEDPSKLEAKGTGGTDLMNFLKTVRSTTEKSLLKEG

One may read the IC50 as the concentration that gives 50% inhibition. On to `CC(=O)Nc1ccc(CCOc2ccccc2-c2c[nH]cn2)cc1` [Compound 34, N-(4-(2-(2-(1H-imidazol-4-yl)phenoxy)ethyl)phenyl) acetamide], for which the IC50 was below 20 µM.

On to `Clc1ccc(COc2c(Br)cccc2-c2c[nH]cn2)cc1` [Compound 60, 4-(3-bromo-2-(4-chlorobenzyloxy)phenyl)-1H-imidazole], for which the IC50 was in the range of 20 to 100 µM.

Turning to `Brc1ccccc1CCOc1ccccc1-c1c[nH]cn1` [Compound 148, 4-(2-(2-bromophenethoxy)phenyl)-1H-imidazole], the IC50 was below 20 µM. Take `N#Cc1ccc(COc2ccccc2-c2c[nH]cn2)cc1` [Compound 55, 4-((2-(1H-imidazol-4-yl)phenoxy)methy)benzonitrile]: the IC50 lay in the range of 20 to 100 µM.

In the case of `CCOC(=O)CCn1cncc1-c1ccccc1` [Compound 122, ethyl 3-(5-phenyl-1H-imidazol-1-yl)propanoate], the IC50 is 100 to 500 µM.

In the case of `Oc1cc(Cl)ccc1-c1cnc[nH]1` [Compound 63, 5-chloro-2-(1H-imidazol-5-yl)phenol], the IC50 is 20 to 100 µM. `NCCn1cncc1-c1ccccc1` [Compound 118, 2-(5-phenyl-1H-imidazol-1-yl)ethanamine]: the half-inhibitory concentration (IC50) lay in the range of 100 to 500 µM. As to `COC(=O)CCC(C)(C)CCOc1ccccc1-c1c[nH]cn1` [Compound 79, methyl 6-(2-(1H-imidazol-4-yl)phenoxy)-4,4-dimethylhexanoate], the IC50 lay within 20 to 100 µM.

Take `N#Cc1ccc(Cn2cncc2-c2ccccc2)cc1` [Compound 97, 4-((5-phenyl-1H-imidazol-1-yl)methyl)benzonitrile]: the IC50 was 20 to 100 µM. As to `CC(C)(C)OC(=O)NCCn1cncc1-c1ccccc1` [Compound 114, tert-butyl 2-(5-phenyl-1H-imidazol-1-yl)ethylcarbamate], the IC50 lay in the range of 100 to 500 µM. `Brc1cccc(-c2cnc[nH]2)c1` [Compound 27, 5-(3-bromophenyl)-1H-imidazole]: the IC50 was below 20 µM. Take `CC(C)(CCOc1ccccc1-c1c[nH]cn1)CCN1CCOCC1` [Compound 161, 4-(5-(2-(1H-imidazol-4-yl)phenoxy)-3,3-dimethylpentyl) morpholine]: the IC50 was 20 to 100 µM. With `CC(C)(CCNCc1ccccc1)CCOc1ccccc1-c1c[nH]cn1` [Compound 166, 5-(2-(1H-imidazol-4-yl)phenoxy)-N-benzyl-3,3-dimethylpentan-1-amine], the IC50 is below 20 µM. For `Cc1cccc(Cn2cncc2-c2ccccc2)c1` [Compound 90, 1-(3-methylbenzyl)-5-phenyl-1H-imidazole], the IC50 was in the range of 20 to 100 µM. Regarding `CCOC(=O)CCCn1cncc1-c1ccccc1` [Compound 121, ethyl 4-(5-phenyl-1H-imidazol-1-yl)butanoate], the IC50 was in the range of 100 to 500 µM.

With `Clc1cccc(Cn2cncc2-c2ccccc2)c1` [Compound 87, 1-(3-chlorobenzyl)-5-phenyl-1H-imidazole], the IC50 was in the range of 20 to 100 µM. `COC(=O)c1ccc(-c2c[nH]cn2)cc1` [Compound 115, methyl 4-(1H-imidazol-4-yl)benzoate]: the IC50 fell in the range of 100 to 500 µM. Regarding `CS(=O)(=O)N1CCC(COc2ccccc2-c2c[nH]cn2)CC1` [Compound 84, 4-((2-(1H-imidazol-4-yl)phenoxy)methyl)-1-(methylsulfonyl)piperidine], the IC50 lay within 20 to 100 µM. Turning to `Brc1ccc(-c2c[nH]cn2)cc1` [Compound 70, 5-(4-bromophenyl)-1H-imidazole], the IC50 lay within 20 to 100 µM. Take `CC(=O)NC1CCC(=CCOc2ccccc2-c2c[nH]cn2)CC1` (centres unmarked) [Compound 39, N-(4-(2-(2-(1H-imidazol-4-yl)phenoxy)ethylidene)cyclohexyl)acetamide]: the IC50 is below 20 µM. On to `CC(C)(C)OC(=O)NCCCCn1cncc1-c1ccccc1` [Compound 86, tert-butyl 4-(5-phenyl-1H-imidazol-1-yl)butylcarbamate], for which the IC50 fell in the range of 20 to 100 µM.

As for `OCc1ccccc1-c1c[nH]cn1` [Compound 78, (2-(1H-imidazol-4-yl)phenyl)methanol], the half-inhibitory concentration (IC50) was in the range of 20 to 100 µM. For `Clc1cccc(COc2ccccc2-c2cnc[nH]2)c1` [Compound 29, 5-(2-(3-chlorobenzyloxy)phenyl)-1H-imidazole], the IC50 was below 20 µM. As to `Nc1ccccc1-c1cnc[nH]1` [Compound 155, 2-(1H-imidazol-4-yl)aniline], the IC50 lay within 20 to 100 µM. With `COc1ccccc1-c1cncn1CCC(C)(C)C` [Compound 89, 1-(3,3-dimethylbutyl)-5-(2-methoxyphenyl)-1H-imidazole], the IC50 was 20 to 100 µM.

As for `CCc1ccc(O)c(-c2cnc[nH]2)c1` [Compound 111, 4-ethyl-2-(1H-imidazol-5-yl)phenol], the IC50 lay within 100 to 500 µM. Next, `CC(=O)NCc1ccc(COc2ccccc2-c2c[nH]cn2)cc1` [Compound 154, N-(4-((2-(1H-imidazol-4-yl)phenoxy)methyl)benzyl) acetamide]: 20 to 100 µM. Regarding `CC(C)(C)CCn1cncc1-c1ccccc1` [Compound 32, 1-(3,3-dimethylbutyl)-5-phenyl-1H-imidazole], the IC50 was below 20 µM.

For the compound `O=C1c2ccccc2CC1Oc1ccccc1-c1c[nH]cn1` (centres unmarked) [Compound 159, 2-(2-(1H-imidazol-4-yl)phenoxy)-2,3-dihydro-1H-inden-1-one], the IC50 lay in the range of 20 to 100 µM. In the case of `N#Cc1cccc(-c2c[nH]cn2)c1` [Compound 94, 3-(1H-imidazol-5-yl)benzonitrile], the IC50 was 20 to 100 µM. Next, `CC(=O)NCCCn1cncc1-c1ccccc1` [Compound 124, N-(3-(5-phenyl-1H-imidazol-1-yl)propyl)acetamide]: 100 to 500 µM; `CC(=O)NCCCCn1cncc1-c1ccccc1` [Compound 127, N-(4-(5-phenyl-1H-imidazol-1-yl)butyl)acetamide]: 100 to 500 µM. Regarding `Cc1ccc(COc2ccccc2-c2c[nH]cn2)cc1` [Compound 66, 4-(2-(4-methylbenzyloxy)phenyl)-1H-imidazole], the IC50 lay in the range of 20 to 100 µM. `CCOC(=O)c1ccccc1-c1c[nH]cn1` [Compound 80, ethyl 2-(1H-imidazol-4-yl)benzoate]: the 50% inhibitory concentration (IC50) was 20 to 100 µM. Take `O=CNCCOc1ccccc1-c1c[nH]cn1` [Compound 107, N-(2-(2-(1H-imidazol-4-yl)phenoxy)ethyl)formamide]: the IC50 fell in the range of 100 to 500 µM. Turning to `Cc1ccccc1Cn1cncc1-c1ccccc1` [Compound 77, 1-(2-methylbenzyl)-5-phenyl-1H-imidazole], the IC50 was 20 to 100 µM. Next, `O=[N+]([O-])c1ccc(Cn2cncc2-c2ccccc2)cc1` [Compound 85, 1-(4-nitrobenzyl)-5-phenyl-1H-imidazole]: 20 to 100 µM; `c1cnc(NCCCOc2ccccc2-c2cnc[nH]2)nc1` [Compound 98, N-(3-(2-(1H-imidazol-5-yl)phenoxy)propyl)pyrimidin-2-amine]: 100 to 500 µM. `Clc1ccc(COc2cc(Cl)ccc2-c2c[nH]cn2)cc1` [Compound 147, 4-(4-chloro-2-(4-chlorobenzyloxy)phenyl)-1H-imidazole]: the IC50 was 20 to 100 µM. For the compound `N#Cc1ccccc1COc1ccccc1-c1c[nH]cn1` [Compound 99, 2-((2-(1H-imidazol-4-yl)phenoxy)methyl)benzonitrile], the IC50 lay in the range of 100 to 500 µM. In the case of `CNC(=O)c1ccc(CCOc2ccccc2-c2c[nH]cn2)cc1` [Compound 45, 4-(2-(2-(1H-imidazol-4-yl)phenoxy)ethyl)-N-methylbenzamide], the IC50 is below 20 µM. On to `N#Cc1cccc(Cn2cncc2-c2ccccc2)c1` [Compound 69, 3-((5-phenyl-1H-imidazol-1-yl)methyl)benzonitrile], for which the IC50 was in the range of 20 to 100 µM. With `CC(C)(C)CCn1cncc1-c1ccccc1OCc1ccc(Cl)cc1` [Compound 106, 5-(2-(4-chlorobenzyloxy)phenyl)-1-(3,3-dimethylbutyl)-1H-imidazole], the IC50 fell in the range of 100 to 500 µM. Turning to `CC(C)(C)OC(=O)Nc1ccccc1-c1c[nH]cn1` [Compound 152, tert-butyl 2-(1H-imidazol-4-yl)phenylcarbamate], the IC50 is below 20 µM. Turning to `Oc1ccc(CCOc2ccccc2-c2c[nH]cn2)cc1` [Compound 158, 4-(2-(2-(1H-imidazol-4-yl)phenoxy)ethyl)phenol], the IC50 was below 20 µM. Next, `O=[N+]([O-])c1ccccc1Cn1cncc1-c1ccccc1` [Compound 71, 1-(2-nitrobenzyl)-5-phenyl-1H-imidazole]: 20 to 100 µM.

As to `Clc1ccc(COc2ccc(Br)cc2-c2c[nH]cn2)cc1` [Compound 49, 4-(5-bromo-2-(4-chlorobenzyloxy)phenyl)-1H-imidazole], the IC50 is below 20 µM. Take `Oc1cccc(OCc2ccc(Cl)cc2)c1-c1cnc[nH]1` [Compound 73, 3-(4-chlorobenzyloxy)-2-(1H-imidazol-5-yl)phenol]: the IC50 fell in the range of 20 to 100 µM.

For the compound `COC(=O)c1cccc(-c2c[nH]cn2)c1` [Compound 112, methyl 3-(1H-imidazol-4-yl)benzoate], the IC50 was 100 to 500 µM.

On to `COc1cccc(OC)c1-c1c[nH]cn1` [Compound 103, 5-(2,6-dimethoxyphenyl)-1H-imidazole], for which the IC50 is 100 to 500 µM.

As for `Clc1ccccc1COc1ccccc1-c1c[nH]cn1` [Compound 75, 4-(2-(2-chlorobenzyloxy)phenyl)-1H-imidazole], the IC50 lay in the range of 20 to 100 µM. On to `CC(C)(C)COc1ccccc1-c1c[nH]cn1` [Compound 31, 4-(2-(neopentyloxy)phenyl)-1H-imidazole], for which the IC50 is below 20 µM. With `N#Cc1cccc(COc2ccccc2-c2c[nH]cn2)c1` [Compound 74, 3-((2-(1H-imidazol-4-yl)phenoxy)methyl)benzonitrile], the half-inhibitory concentration (IC50) was 20 to 100 µM.
